According to patent US11926620B1, “1-Cyclopropyl-6-fluoro-4-oxo-7-(4-((2-thioxobenzo[d]oxazol-3(2H)-yl)methyl)piperazin-1-yl)-1,4-dihydroquinoline-3-carboxylic acid as an antimicrobial and anticancer compound” (KING FAISAL UNIVERSITY, priority 2023, dated 2024):

Tests used:
[1] = test system: human prostate cancer cells (PC3); assay: Cytotoxicity by SRB assay, PC3; format: cell-based; settings: 0.01 μM to 100 μM for 72 h, result in words
Protocol: (§1) The human prostate cancer cells (PC3) and human osteosarcoma cells (MG-63) were obtained from Nawah Scientific Inc. (Mokatam, Cairo, Egypt) and cultured in DMEM (Dulbecco's modified eagle's medium), Gibco, USA, supplemented with fetal bovine serum (FBS) at a concentration of 10% and 100 U/mL of penicillin and streptomycin (PS). The Cells were incubated at 37° C. in a humidified environment that contained 5% CO2. Cells were seeded in 96-well plates as aliquots of 100 μL cell suspension and incubated in a complete media for 24 h. afterward, cells were treated with 1-Cyclopropyl-6-fluoro-4-oxo-7-(4-((2-thioxobenzo[d]oxazol-3(2H)-yl)methyl)piperazin-1-yl)-1,4-dihydroquinoline-3-carboxylic acid at diverse concentrations ranging from 0.01 μM to 100 μM for 72 h. Then, cells were fixed at 4° C. for one hour with 150 μL of 10% trichloroacetic acid (TCA). […] Then, 150 μL of Tris pH 10.5 (10 mM) was added, and the absorbance was measured at 540 nm using a BMG LABTECH®-FLUOstar Omega microplate reader (Ortenberg, Germany). Half maximal inhibitory concentrations (IC50) values were calculated for each experiment using GraphPad Prism 6 software. […] The inhibition was calculated using the following equation: Inhibition %=100−Average Viability

[2] = test system: human osteosarcoma cells (MG-63); assay: Cytotoxicity by SRB assay, MG-63; format: cell-based; settings: MG-63 cells, 0.01 μM to 100 μM for 72 h, result in words
Protocol: as §1

Bacillus cereus = assay: Agar plate disc-diffusion, Bacillus cereus; format: cell-based; settings: gram positive Bacillus cereus; disc 10 μL of 10 mg/mL in DMSO, 37° C., 48 h; result in words
Protocol: (§2) The antimicrobial properties of the synthesized compounds were studied by the method of agar plate disc-diffusion. Sterilized filter papers (6 mm in diameter) were wetted with 10 μL of a solution of each compound to be tested, containing 10 mg/mL in DMSO, and the discs were allowed to air dry. The discs were then placed onto the surface of agar plates (nutrient agar for bacteria and Sabouraud's dextrose agar for fungi) seeded with the test organism. Each plate contained 15 mL of the agar medium, previously seeded with 0.2 mL of the broth culture of each organism pregrown for 18 h. The plates were incubated at 37° C. for 48 h, and 72 h for fungi. The inhibition zones were measured in mm. Discs impregnated with DMSO were used as a control, and its inhibition zone was subtracted from the tested compound actual inhibition zone.

Staphylococcus aureus = assay: Agar plate disc-diffusion, Staphylococcus aureus; format: cell-based; settings: gram positive Staphylococcus aureus; disc 10 μL of 10 mg/mL in DMSO, 37° C., 48 h; result in words
Protocol: as §2

Pseudomonas aeruginosa = assay: Agar plate disc-diffusion, Pseudomonas aeruginosa; format: cell-based; settings: gram-negative Pseudomonas aeruginosa; disc 10 μL of 10 mg/mL in DMSO, 37° C., 48 h; result in words
Protocol: as §2

Escherichia coli = assay: Agar plate disc-diffusion, Escherichia coli; format: cell-based; settings: gram-negative Escherichia coli; disc 10 μL of 10 mg/mL in DMSO, 37° C., 48 h; result in words
Protocol: as §2

Aspergillus flavus = assay: Agar plate disc-diffusion, Aspergillus flavus; format: cell-based; settings: disc 10 μL of 10 mg/mL in DMSO, 72 h, result in words
Protocol: as §2

[3] = test system: Chrysosporium keratinophilum; assay: Agar plate disc-diffusion, Chrysosporium keratinophilum; format: cell-based; settings: disc 10 μL of 10 mg/mL in DMSO, 72 h, result in words
Protocol: as §2

O=C(O)c1cn(C2CC2)c2cc(N3CCN(Cn4c(=S)oc5ccccc54)CC3)c(F)cc2c1=O [1-cyclopropyl-6-fluoro-4-oxo-7-(4-((2-thioxobenzo[d]oxazol-3(2H)-yl)methyl)piperazin-1-yl)-1,4-dihydroquinoline-3-carboxylic acid]
excellent antiproliferative activities: antiproliferative activity [1] | antiproliferative activity [2]
187 to 189 °C: melting point
excellent antimicrobials activities: antibacterial activity (Bacillus cereus) | antibacterial activity (Staphylococcus aureus) | antibacterial activity (Pseudomonas aeruginosa) | antibacterial activity (Escherichia coli) | antifungal activity (Aspergillus flavus) | antifungal activity [3]
